Drawing on ChEMBL document CHEMBL1122047, this text covers RA for 7 molecules.

Where “and” joins values, the source holds several entries; their conditions need not be identical. Equal values may be shown once.

The assay deals with Substance-P receptor (Cavia porcellus) (UniProt P30547). The assay can be described thus: Relative affinity for Tachykinin receptor 1 compared with [Nle11]-SP.
Sequence of Substance-P receptor (Cavia porcellus) (P30547 whole entry): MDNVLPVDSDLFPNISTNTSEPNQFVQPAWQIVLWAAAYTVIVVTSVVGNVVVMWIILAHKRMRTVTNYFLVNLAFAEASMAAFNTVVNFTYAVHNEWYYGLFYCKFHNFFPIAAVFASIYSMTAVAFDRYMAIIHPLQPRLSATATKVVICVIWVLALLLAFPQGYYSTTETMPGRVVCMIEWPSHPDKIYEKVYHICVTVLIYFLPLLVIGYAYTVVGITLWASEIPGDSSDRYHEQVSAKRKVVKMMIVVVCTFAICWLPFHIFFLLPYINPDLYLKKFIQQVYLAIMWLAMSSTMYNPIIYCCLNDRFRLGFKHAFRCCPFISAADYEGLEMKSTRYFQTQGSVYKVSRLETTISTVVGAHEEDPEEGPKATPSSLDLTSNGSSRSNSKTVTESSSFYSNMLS
As to `CC(C)C[C@H](NC(=O)CNC(=O)[C@H](Cc1ccccc1)NC(=O)[C@H](Cc1ccccc1)NC(=O)[C@H](CCC(N)=O)NC(=O)[C@H](CCC(N)=O)NC(=O)[C@@H]1CCCN1C(=O)[C@H](CCCCN)NC(=O)[C@@H]1CCCN1C(=O)[C@@H](N)CCCN=C(N)N)C(=O)N[C@@H](Cc1ccc(N)cc1)C(N)=O`, the RA was 55% and 69%.

Consider `CCCC[C@H](NC(=O)[C@H](CC(C)C)NC(=O)CNC(=O)[C@H](Cc1ccccc1)NC(=O)[C@H](Cc1ccccc1)NC(=O)[C@H](CCC(N)=O)NC(=O)[C@H](CCC(N)=O)NC(=O)[C@@H]1CCCN1C(=O)[C@H](CCCCN)NC(=O)[C@@H]1CCCN1C(=O)[C@@H](N)CCCN=C(N)N)C(N)=O`, for which the RA turned out to be 100%.

With `CC(C)C[C@H](NC(=O)CNC(=O)[C@H](Cc1ccccc1)NC(=O)[C@H](Cc1ccccc1)NC(=O)[C@H](CCC(N)=O)NC(=O)[C@H](CCC(N)=O)NC(=O)[C@@H]1CCCN1C(=O)[C@H](CCCCN)NC(=O)[C@@H]1CCCN1C(=O)[C@@H](N)CCCN=C(N)N)C(=O)N[C@@H](Cc1ccc([N+]#N)cc1)C(N)=O`, the RA was 81% and 72%.

On to `CC(C)C[C@H](NC(=O)CNC(=O)[C@H](Cc1ccccc1)NC(=O)[C@H](Cc1ccccc1)NC(=O)[C@H](CCC(N)=O)NC(=O)[C@H](CCC(N)=O)NC(=O)[C@@H]1CCCN1C(=O)[C@H](CCCCN)NC(=O)[C@@H]1CCCN1C(=O)[C@@H](N)CCCN=C(N)N)C(=O)N[C@@H](Cc1ccc(N=[N+]=[N-])cc1)C(N)=O`, for which the RA is 48% and 50%.

Molecule `CCCC[C@H](NC(=O)[C@H](CC(C)C)NC(=O)CNC(=O)[C@H](Cc1ccc(N=[N+]=[N-])cc1)NC(=O)[C@H](Cc1ccccc1)NC(=O)[C@H](CCC(N)=O)NC(=O)[C@H](CCC(N)=O)NC(=O)[C@@H]1CCCN1C(=O)[C@H](CCCCN)NC(=O)[C@@H]1CCCN1C(=O)[C@@H](N)CCCN=C(N)N)C(N)=O` came in with an RA of 50%.

Regarding `CC(C)C[C@H](NC(=O)CNC(=O)[C@H](Cc1ccccc1)NC(=O)[C@H](Cc1ccccc1)NC(=O)[C@H](CCC(N)=O)NC(=O)[C@H](CCC(N)=O)NC(=O)[C@@H]1CCCN1C(=O)[C@H](CCCCN)NC(=O)[C@@H]1CCCN1C(=O)[C@@H](N)CCCN=C(N)N)C(=O)N[C@@H](Cc1ccccc1)C(N)=O`, the RA was 100%.

`CCCC[C@H](NC(=O)[C@H](CC(C)C)NC(=O)CNC(=O)[C@H](Cc1ccccc1)NC(=O)[C@H](Cc1ccc([N+](=O)[O-])cc1)NC(=O)[C@H](CCC(N)=O)NC(=O)[C@H](CCC(N)=O)NC(=O)[C@@H]1CCCN1C(=O)[C@H](CCCCN)NC(=O)[C@@H]1CCCN1C(=O)[C@@H](N)CCCN=C(N)N)C(N)=O` showed an RA of 10%.
